Patent US20020183384A1, “Methods of treating nuclear factor-kappa B mediated diseases and disorders” (priority 2001, published 2002)
Like-named read-outs stand apart in the source and are kept apart here.

System: NF-κB mediated transcription
Test: NF-κB driven β-lactamase reporter assay in ECV-304 NF-κB.βlaZ cells (AURORA CCF2 fluorescence)
Format: cell-based, human
Details: 10 μM compound, ECV-304 NF-κB.βlaZ cells stimulated with 10 ng/mL TNF-α or 100 pg/mL IL-1β, 6 hours at 37° C., inhibition of maximum blue/green ratio; for inhibition at 10 µM: Homo sapiens, read-out: Percent Inhibition at 10 μM
Outline: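 Blue/green (460/530 nm, excitation 395 nm) CCF2 emission ratio quantified NF-κB-driven β-lactamase expression in the stably transfected endothelial-like ECV-304 clone 1E8.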

Structure (SMILES) | inhibition at 10 µM (ECV-304, 6 h) | further results
CC(C)c1cccc(C(C)C)c1OS(=O)(=O)NC(=O)C(c1ccccc1)C1CCCCC1 (centres unmarked) [Example 170, (Cyclohexyl-phenyl-acetyl)-sulfamic acid 2,6-diisopropyl-phenyl ester] | 78.6% | –
CC(C)c1cccc(C(C)C)c1OS(=O)(=O)NC(=O)C(C)(c1ccccc1)c1ccccc1 [Example 171, (2,2-Diphenyl-propionyl)-sulfamic acid 2,6-diisopropyl-phenyl ester] | 62.2% | –
CC(C)c1cccc(C(C)C)c1OS(=O)(=O)NC(=O)C(c1ccc(Cl)cc1)c1ccc(Cl)cc1 [Example 172, [Bis-(4-chloro-phenyl)-acetyl]-sulfamic acid 2,6-diisopropyl-phenyl ester] | 86.9% | –
CC(C)c1cccc(C(C)C)c1OS(=O)(=O)NC(=O)C1c2ccccc2Oc2ccccc21 [Example 173, (9H-Xanthene-9-carbonyl)-sulfamic acid 2,6-diisopropyl-phenyl ester] | 36.9% | –
CC(C)c1cccc(C(C)C)c1OS(=O)(=O)NC(=O)C1c2ccccc2-c2ccccc21 [Example 174, (9H-Fluorene-9-carbonyl)-sulfamic acid 2,6-diisopropyl-phenyl ester] | 32.2% | –
CC(C)c1cccc(C(C)C)c1OS(=O)(=O)NC(=O)C(Br)c1ccccc1 (centres unmarked) [Example 175, (Bromo-phenyl-acetyl)-sulfamic acid 2,6-diisopropyl-phenyl ester] | < 10% | –
CC(C)c1cccc(C(C)C)c1OS(=O)(=O)NC(=O)CCc1ccccc1 [Example 176, (3-Phenyl-propionyl)-sulfamic acid 2,6-diisopropyl-phenyl ester] | < 10% | –
CC(C)c1cc(C(C)C)c(NC(=O)NS(=O)(=O)Oc2c(C(C)C)cccc2C(C)C)c(C(C)C)c1 [Example 177, Sulfamic acid, [[[2,4,6-tris(1-methylethyl)phenyl]amino]carbonyl]-, 2,6-bis(1-methylethyl)phenyl ester] | 63.6% | –
CC(C)c1cccc(C(C)C)c1OS(=O)(=O)NC(=O)Oc1cccnc1 [Example 178, Carbamic acid, [[2,6-bis(1-methylethyl)phenoxy]sulfonyl]-, 3-pyridinyl ester] | – | inhibition at 10 µM: < 10%
Cc1cccc(C)c1OC(=O)NS(=O)(=O)Oc1c(C(C)C)cccc1C(C)C [Example 179, Carbamic acid, [[2,6-bis(1-methylethyl)phenoxy]sulfonyl]-, 2,6-dimethylphenyl ester] | – | inhibition at 10 µM: < 10%
CC(C)c1cc(C(C)C)c(CC(=O)NS(=O)(=O)Oc2c(C(C)C)cc(O)cc2C(C)C)c(C(C)C)c1 [Example 180, [(2,4,6-Triisopropyl-phenyl)-acetyl]-sulfamic acid 4-hydroxy-2,6-diisopropyl-phenyl ester] | 92% | –
CC(C)c1cc(C(C)C)c(CC(=O)N(C)S(=O)(=O)Oc2c(C(C)C)cccc2C(C)C)c(C(C)C)c1 [Example 181, Methyl-[(2,4,6-triisopropyl-phenyl)-acetyl]-sulfamic acid 2,6-diisopropyl-phenyl ester] | < 10% | –
CC(C)c1cc(C(C)C)c(CC(=O)NS(=O)(=O)Oc2c(C(C)C)cc([N+](=O)[O-])cc2C(C)C)c(C(C)C)c1 [Example 182, [(2,4,6-Triisopropyl-phenyl)-acetyl]-sulfamic acid 2,6-diisopropyl-4-nitro-phenyl ester] | 69.8% | –
CC(=O)c1cc(C(C)C)c(OC(=O)NS(=O)(=O)Oc2c(C(C)C)cccc2C(C)C)c(C(C)C)c1 [Example 183, Carbamic acid, [[2,6-bis(1-methylethyl)phenoxy]sulfonyl]-, 4-acetyl-2,6-bis(1-methylethyl)phenyl ester] | – | inhibition at 10 µM: < 10%
CC(C)c1cc(F)cc(C(C)C)c1OC(=O)NS(=O)(=O)Oc1c(C(C)C)cccc1C(C)C [Example 184, Carbamic acid, [[2,6-bis(1-methylethyl)phenoxy]sulfonyl]-, 4-fluoro-2,6-bis(1-methylethyl)phenyl ester] | – | inhibition at 10 µM: 21.2%
CC(C)c1cc(C(C)C)c(CC(=O)NS(=O)(=O)Oc2c(C(C)C)cc(F)cc2C(C)C)c(C(C)C)c1 [Example 185, [(2,4,6-Triisopropyl-phenyl)-acetyl]-sulfamic acid 4-fluoro-2,6-diisopropyl-phenyl ester] | 73.9% | –

Structure (SMILES) | inhibition at 10 µM (ECV-304, 6 h) | further results
COc1cccc(OC)c1OS(=O)(=O)NC(=O)Cc1c(C(C)C)cc(C(C)C)cc1C(C)C [Example 186, [(2,4,6-Triisopropyl-phenyl)-acetyl]-sulfamic acid 2,6-dimethoxy-phenyl ester] | 18.8% | –
CC(C)c1cc(C(C)C)c(CC(=O)NS(=O)(=O)Oc2c(C(C)C)cc(N)cc2C(C)C)c(C(C)C)c1 [Example 187, [(2,4,6-Triisopropyl-phenyl)-acetyl]-sulfamic acid 4-amino-2,6-diisopropyl-phenyl ester] | 57.8% | –
CCOC(=O)CCCCCc1cc(C(C)C)c(OS(=O)(=O)NC(=O)Cc2c(C(C)C)cc(C(C)C)cc2C(C)C)c(C(C)C)c1 [Example 188, 6-(3,5-Diisopropyl-4-{[(2,4,6-triisopropyl-phenyl)-acetyl]sulfamoyloxy}-phenyl)-hexanoic acid ethyl ester] | 50.8% | –
COc1cc(OC)c(OS(=O)(=O)NC(=O)Cc2c(C(C)C)cc(C(C)C)cc2C(C)C)c(OC)c1 [Example 189, [(2,4,6-Triisopropyl-phenyl)-acetyl]-sulfamic acid 2,4,6-trimethoxy-phenyl ester] | 15.1% | –
CC(C)c1cc(C(C)C)c(CC(=O)NS(=O)(=O)Oc2c(C(C)C)cc(C(C)(C)C)cc2C(C)C)c(C(C)C)c1 [Example 190, [(2,4,6-Triisopropyl-phenyl)-acetyl]-sulfamic acid 4-tert-butyl-2,6-diisopropyl-phenyl ester] | 27.6% | –
CC(=O)c1ccc(OS(=O)(=O)NC(=O)Cc2c(C(C)C)cc(C(C)C)cc2C(C)C)c(C(C)C)c1 [Example 191, [(2,4,6-Triisopropyl-phenyl)-acetyl]-sulfamic acid 4-acetyl-2-isopropyl-phenyl ester] | 55.7% | –
COc1cc(C(C)C)c(OS(=O)(=O)NC(=O)Cc2c(C(C)C)cc(C(C)C)cc2C(C)C)c(C(C)C)c1 [Example 192, [(2,4,6-Triisopropyl-phenyl)-acetyl]-sulfamic acid 2,6-diisopropyl-4-methoxy-phenyl ester] | 63.9% | –
CC(C)c1cc(C(C)C)c(CC(=O)NS(=O)(=O)Oc2c(Cl)cccc2Cl)c(C(C)C)c1 [Example 193, [(2,4,6-Triisopropyl-phenyl)-acetyl]-sulfamic acid 2,6-dichloro-phenyl ester] | 38.3% | –
CCOC(=O)CCNC(=O)Nc1cc(C(C)C)c(OS(=O)(=O)NC(=O)Cc2c(C(C)C)cc(C(C)C)cc2C(C)C)c(C(C)C)c1 [Example 194, 3-[3-(3,5-Diisopropyl-4-{[(2,4,6-triisopropyl-phenyl)-acetyl]-sulfamoyloxy}-phenyl)-ureido]-propionic acid ethyl ester] | 89.8% | –
CC(C)c1cc(C(C)C)c(CC(=O)NS(=O)(=O)Oc2c(C(C)C)cc(NC(=O)C(CCCCNC(=O)OC(C)(C)C)NC(=O)OC(C)(C)C)cc2C(C)C)c(C(C)C)c1 (centres unmarked) [Example 195, [5-tert-Butoxycarbonylamino-5-(3,5-diisopropyl-4-{[(2,4,6-triisopropyl-phenyl)-acetyl]sulfamoyloxy}-phenylcarbamoyl)-pentyl]-carbamic acid tert-butyl ester] | 91.8% | –
CC(=O)Nc1cc(C(C)C)c(OS(=O)(=O)NC(=O)Cc2c(C(C)C)cc(C(C)C)cc2C(C)C)c(C(C)C)c1 [Example 196, [(2,4,6-Triisopropyl-phenyl)-acetyl]-sulfamic acid 4-acetylamino-2,6-diisopropyl-phenyl ester] | 73.1% | –
CC(C)c1cc(C(C)C)c(CC(=O)NS(=O)(=O)Oc2c(C(C)C)cc(NC(=O)[C@@H](N)CCCCN)cc2C(C)C)c(C(C)C)c1 [Example 197, [2-(2,4,6-Triisopropyl-phenyl)-acetyl]-sulfamic acid 4-((S)-2,6-diamino-hexanoylamino)-2,6-diisopropyl-phenyl ester; compound with generic inorganic neutral component] | – | Percent Inhibition at 10 μM: <10%
CC(C)c1cc(C(C)C)c(CC(=O)NS(=O)(=O)Oc2c(C(C)C)cc(NC(=O)CNC(=O)OC(C)(C)C)cc2C(C)C)c(C(C)C)c1 [Example 198, [(3,5-Diisopropyl-4-{[(2,4,6-triisopropyl-phenyl)-acetyl]sulfamoyloxy}-phenylcarbamoyl)-methyl]-carbamic acid tert-butyl ester] | 75.8% | –
CCCCCCCCCCCCOS(=O)(=O)NC(=O)Cc1c(C(C)C)cc(C(C)C)cc1C(C)C [Example 199, [(2,4,6-Triisopropyl-phenyl)-acetyl]-sulfamic acid dodecyl ester] | 50.7% | –
CC(C)c1cc(C(C)C)c(CC(=O)NS(=O)(=O)Oc2c(C(C)C)cc(NC(=O)CN)cc2C(C)C)c(C(C)C)c1 [Example 200, [(2,4,6-Triisopropyl-phenyl)-acetyl]-sulfamic acid 4-(2-amino-acetylamino)-2,6-diisopropyl-phenyl ester] | 72.7% | –
CSCC[C@H](N)C(=O)Nc1cc(C(C)C)c(OS(=O)(=O)NC(=O)Cc2c(C(C)C)cc(C(C)C)cc2C(C)C)c(C(C)C)c1 [Example 201, [2-(2,4,6-Triisopropyl-phenyl)-acetyl]-sulfamic acid 4-((S)-2-amino-4-methylsulfanyl-butyrylamino)-2,6-diisopropyl-phenyl ester] | 87.1% | –
